Data reported in PubChem BioAssay AID328 (DTP/NCI, 2004).
Values joined by “and” are separate entries in the source; they are usually repeats but may differ in a detail not shown here. Equal values may be shown once. Inconclusive results and toxic doses are left out. Rule for the calls: active = survival T/C of 150% or more; inactive = T/C below 125% in these data.

Test system: BDF1 mice, P388 leukemia ip, median survival T/C
Test: NCI In Vivo Anticancer Drug Screen. Data for tumor model P388 Leukemia (intraperitoneal) in B6D2F1 (BDF1) mice
Conditions: endpoint: median survival time, higher = longer survival
In short: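 Each value expresses how treatment altered survival: treated-mouse outcome over vehicle-mouse outcome, both groups bearing the transplanted tumour.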

[1] = dose: 6.25 mg/kg/injection, schedule: Q01DX009 (ip), vehicle: saline
[2] = dose: 12.5 mg/kg/injection, schedule: Q01DX009 (ip), vehicle: saline
[3] = dose: 12.5 mg/kg/injection, schedule: Q04DX003 (ip), vehicle: saline
[4] = dose: 25.0 mg/kg/injection, schedule: Q01DX009 (ip), vehicle: saline
[5] = dose: 25.0 mg/kg/injection, schedule: Q04DX003 (ip), vehicle: saline
[6] = dose: 50.0 mg/kg/injection, schedule: Q01DX009 (ip), vehicle: saline
[7] = dose: 50.0 mg/kg/injection, schedule: Q04DX003 (ip), vehicle: saline
[8] = dose: 100.0 mg/kg/injection, schedule: Q01DX009 (ip), vehicle: saline
[9] = dose: 25.0 mg/kg/injection, schedule: Q04DX003 (ip), vehicle: Klucel (hydroxypropylcellulose) (HPC)
[10] = dose: 50.0 mg/kg/injection, schedule: Q04DX003 (ip), vehicle: Klucel (hydroxypropylcellulose) (HPC)
[11] = dose: 50.0 mg/kg/injection, schedule: Q01DX009 (ip), vehicle: saline with Tween-80
[12] = dose: 100.0 mg/kg/injection, schedule: Q01DX009 (ip), vehicle: saline with Tween-80
[13] = dose: 200.0 mg/kg/injection, schedule: Q01DX009 (ip), vehicle: saline with Tween-80
[14] = dose: 100.0 mg/kg/injection, schedule: Q04DX003 (ip), vehicle: saline with Tween-80

Measured: T/C

NC(CSCc1ccccc1)CSCc1ccccc1
inactive: dose: 0.78 mg/kg/injection, schedule: Q04DX003 (ip), vehicle: saline 99 % of control | dose: 1.56 mg/kg/injection, schedule: Q04DX003 (ip), vehicle: saline 86 % of control and 91 % of control | [1] 107 % of control | dose: 6.25 mg/kg/injection, schedule: Q04DX003 (ip), vehicle: saline 99 % of control and 104 % of control | [2] 109 % of control | [3] 94 % of control and 95 % of control and 100 % of control | [4] 118 % of control | [5] 99 % of control and 100 % of control and 120 % of control | [6] 109 % of control | [7] 104 % of control | [8] 109 % of control

O=C1NCCN1c1cccc([N+](=O)[O-])c1
inactive: [9] 100 % of control | [10] 100 % of control

CC(=O)OCc1ccc[n+](C2=C([O-])C(=O)C([n+]3cccc(COC(C)=O)c3)=C([O-])C2=O)c1
inactive: [11] 104 % of control | [12] 98 % of control | [13] 102 % of control

COc1ccc(NCNc2ccc(OC)cc2)cc1
inactive: [9] 110 % of control | [10] 105 % of control | dose: 100.0 mg/kg/injection, schedule: Q04DX003 (ip), vehicle: Klucel (hydroxypropylcellulose) (HPC) 110 % of control

Clc1[nH]nc2ccccc12
inactive: dose: 12.5 mg/kg/injection, schedule: Q01DX009 (ip), vehicle: saline with Tween-80 91 % of control | dose: 25.0 mg/kg/injection, schedule: Q01DX009 (ip), vehicle: saline with Tween-80 87 % of control | [11] 95 % of control | dose: 50.0 mg/kg/injection, schedule: Q04DX003 (ip), vehicle: saline sonified 90 % of control | [12] 100 % of control | dose: 100.0 mg/kg/injection, schedule: Q04DX003 (ip), vehicle: saline sonified 90 % of control | dose: 200.0 mg/kg/injection, schedule: Q04DX003 (ip), vehicle: saline sonified 90 % of control

CCOC(=O)C1(C(=O)OCC)C2CC=CCC21 (configuration not stated)
inactive: [8] 95 % of control | dose: 200.0 mg/kg/injection, schedule: Q01DX009 (ip), vehicle: saline 100 % of control | dose: 400.0 mg/kg/injection, schedule: Q01DX009 (ip), vehicle: saline 100 % of control

COc1ccc(CC[N+]2=Cc3cc(OC)c(OC)cc3CC2)cc1OC
inactive: [1] 104 % of control and 111 % of control | [2] 100 % of control | [3] 109 % of control | [4] 100 % of control and 104 % of control | [5] 117 % of control | [6] 95 % of control and 103 % of control and 107 % of control | [7] 101 % of control and 103 % of control | [8] 98 % of control | dose: 150.0 mg/kg/injection, schedule: Q01DX009 (ip), vehicle: saline 95 % of control

N#Cc1cnc2nc1NCCCCCCC2
inactive: [14] 86 % of control

Cc1ccc(C2=NNc3n[nH]c(=S)n3N2)cc1
inactive: [14] 91 % of control | dose: 200.0 mg/kg/injection, schedule: Q04DX003 (ip), vehicle: saline with Tween-80 95 % of control | dose: 400.0 mg/kg/injection, schedule: Q04DX003 (ip), vehicle: saline with Tween-80 100 % of control

CC1=CC(=O)c2c(O)cc(C)c(C(=O)C(Cl)Cl)c2C1=O
inactive: dose: 10.0 mg/kg/injection, schedule: Q01DX009 (ip), vehicle: Klucel (hydroxypropylcellulose) (HPC) 112 % of control | dose: 20.0 mg/kg/injection, schedule: Q01DX009 (ip), vehicle: Klucel (hydroxypropylcellulose) (HPC) 112 % of control

Cn1c(N)c(N=Nc2ccccc2Cl)c(=O)n(C)c1=O
inactive: [11] 98 % of control | [12] 99 % of control | [13] 100 % of control
